According to patent publication US7557268B1, “Promoter for expression of a gene and response to infection or wounding” (priority 1999, dated 2009):
Read-outs that look alike come from different tables or passages of the source.

Columns and labels:
[1] = system: sugar beet promoter (gus reporter) in transgenic rape lines AG5947-t38, AG5947-t48; assay: Induction of the promoter in leaf disks of transgenic rape by salicylic acid and PMG-elicitor; type: cell-based; conditions: SA 0.5 mM, PMG-Elicitor 25 μg/ml
Source text: In order to examine the effect of salicylic acid and a purified PMG-elicitor from the cell wall of Phytophthora sojae (Valent, 1978) on the promoter activity, leaf disks with a diameter of 14 mm were stamped out of the leaves of greenhouse plants with the aid of a cork punch. The use of leaf disks facilitates the uptake of the salicylic acid or as the case may be the elicitor along the wound edge into the leaf tissue. Respectively 10 leaf disks from leaves of the transformed AG5947-t38 and […] were incubated in 90 mm sized petri dishes in salicylic acid containing medium (LS-medium without sucrose, 5 mM MES pH 7.0, 0.5 mM SA), in PMG-elicitor containing medium (LS-medium without sucrose, 5 mM MES pH 7.0, 25 μg elicitor/ml) or in control medium (LS-medium without sucrose, 5 mM MES pH 7.0) for 16 hours at 24° C. The activity of a promoter is described as in Jefferson (1987) measured by a quantitative determination of the GUS-activity.

[2] = system: sugar beet promoter (pAG5947-trans, gus reporter) in transgenic tobacco PR1-52; assay: Promoter activity in leaf disks of transgenic tobacco PR1-52 with increasing plant age; type: cell-based, Nicotianum tabacum cv. SR1; conditions: for Separated + SA Specific GUS-Activity: leaf disks, 0.5 mM SA, 16 hours; for SA-Induction: vs fresh harvested control leaves
Procedure: […] SR1. The produced tobacco transformates are given identification PR1-52, PR1-54 and PR1-56. The transformate PR1-52 is multiplied and placed in a greenhouse. After the plant has achieved a height of approximately 20 cm, the activatability of the sugar beet promoter is analyzed depending upon the plant age. For this, 6 leaves of different ages on the plant were selected. The oldest, lowest leaf is given reference number 1 and the youngest, highest leaf is given the reference number 6. From the leaf half of one of each leaf there is stamped out, with the aid of a 14 mm cork punch, respectively 15 equally sized leaf disks. Respectively 5 leaf disks are incubated in 90 mm sized petri dishes in salicylic acid containing medium (LS-Medium without Sucrose, 5 mM MES pH 7.0, 0.5 mM SA), in PMG-elicitor containing medium (LS-Medium without Sucrose, 5 mM MES pH 7.0, 1 unit elicitor/ml) or in control medium (LS-Medium without Sucrose, 5 mM MES pH 7.0) for 16 hours at 24° C. On the next day, from each treated leaf half again 5 disks were stamped out for control purposes. The activity of the promoter in these disks as well as the disks incubated over night were measured according to Jefferson (1987) by a quantitative determination of the GUS-activity. After 16 days the corresponding test is repeated with the still intact leaf halves of the leaves 1-6. The tobacco plant is in the meantime grown and approximately 50-60 cm high. […] The promoter activity increases with increasing age of the transgenic plants. The wounding or as the case may be the elicitation or as the case may be salicylic acid application leads, in the reporter gene plant with high plant age, in all examined leaves to a higher reporter gene activity and therewith promoter activity. The plant age has however no influence on the relative induction of the promoter by wounding, elicitation or salicylic acid application.

[3] = system: pAG5947-trans promoter (gus reporter) in PR1-52, PR1-54, PR1-56; assay: Promoter activity of pAG5947-trans in leaf disks of transgenic tobacco; type: cell-based; conditions: for SA-Induction: vs fresh harvested control leaves
[4] = system: pAG516 promoter deletion (gus reporter) in PR4-19, PR4-21, PR4-22; assay: Promoter activity of deletion construct pAG516 in leaf disks of transgenic tobacco; type: cell-based; conditions: for Separated + SA Specific GUS Activity: leaf disks; for SA-Induction: vs fresh harvested control leaves
[5] = system: pAG2339 promoter deletion (gus reporter) in PR8-2, PR8-3, PR8-12; type: cell-based, tobacco; conditions: leaf disks, SA
[6] = system: SR1 non-transgenic starting line; assay: GUS activity in leaf disks of the non-transgenic tobacco starting line; type: cell-based
[7] = system: promoter activity (transcript amount) in leaves of sugar beets; assay: Activation of the promoter in sugar beet leaf disks by salicylic acid, RNA-blot with phosphoimager; type: cell-based; conditions: for transcript amount formed by the promoter activity: sugar beet leaf disks, 2.0 mM Salicyclic Acid
Procedure: In order to investigate the reaction of the promoter in sugar beet leaves to abiotic triggers such as wounds or, as the case may be, on the effect of resistance inductors such as salicylic acid, leaf disks (1 cm diameter) were punched out of 12 week old sugar beets with the aid of a cork stamp. Respectively 100 leaf disks were incubated in control medium (LS-Medium without Sucrose, 5 mM MES pH 7.0) or in salicylic acid containing medium (LS-Medium without Sucrose, 5 mM MES pH 7.0, 2.0 mM SA) for 16 hours at 24° C. Total cell RNA was isolated and an RNA-blot analysis was carried out as described above. The intensity of the hybridization as signal on the RNA-blot was quantified with the aid of a Phosphoimager. The promoter activity of the disks in the control set is not constant over the experiment (Table 8). Based on the 0 hour value, the promoter activity in the control set falls slightly after 3 hours, only to then increase over 6 hours and 11 hours until the 24 hour value. After 24 hours the transcript amount in the control set is approximately 3-fold higher than in the beginning of the experiment (0 h). This rise in the promoter activity is to be traced back to the wounding of the leaf tissue during the stamping out of the leaf disks. […] In the salicylic acid containing medium there is likewise a rise in the transcript amount depending upon the time (Table 8). […] Thus the transcript amount after 24 hours is approximately the 8.5-fold of the 0 h value. The cause of the higher activity of the promoter in the salicylic acid containing medium is the inducibility of the promoter by salicylic acid.

SMILES: O=C(O)c1ccccc1O [SA, salicylic acid]
- AG5947-t38 Specific GUS-Activities ([1]; AG5947-t38 leaf disks, 16 hours at 24° C.): 485.3 pMol Mu × min^−1 × mg^−1
- AG5947-t38 Induction ([1]; AG5947-t38 leaf disks, vs control medium): 19.8
- AG5947-t48 Specific GUS-Activity ([1]; AG5947-t48 leaf disks, 16 hours at 24° C.): 17.2 pMol Mu × min^−1 × mg^−1
- AG5947-t48 Induction ([1]; AG5947-t48 leaf disks, vs control medium): 9.2
- Separated + SA Specific GUS-Activity ([2]; PR1-52, Leaf 1, t = 0 d): 314.92 pMol Mu × min^−1 × mg^−1
- SA-Induction ([2]; PR1-52, Leaf 1, t = 0 d): 5.3
- Separated + SA Specific GUS-Activity ([2]; PR1-52, Leaf 1, t = 16 d): 861.82 pMol Mu × min^−1 × mg^−1
- SA-Induction ([2]; PR1-52, Leaf 1, t = 16 d): 30.5
- Separated + SA Specific GUS-Activity ([2]; PR1-52, Leaf 2, t = 0 d): 205.53 pMol Mu × min^−1 × mg^−1
- SA-Induction ([2]; PR1-52, Leaf 2, t = 0 d): 13.6
- Separated + SA Specific GUS-Activity ([2]; PR1-52, Leaf 2, t = 16 d): 2358.18 pMol Mu × min^−1 × mg^−1
- SA-Induction ([2]; PR1-52, Leaf 2, t = 16 d): 30.7
- Separated + SA Specific GUS-Activity ([2]; PR1-52, Leaf 3, t = 0 d): 225.07 pMol Mu × min^−1 × mg^−1
- SA-Induction ([2]; PR1-52, Leaf 3, t = 0 d): 21.7
- Separated + SA Specific GUS-Activity ([2]; PR1-52, Leaf 3, t = 16 d): 555.62 pMol Mu × min^−1 × mg^−1
- SA-Induction ([2]; PR1-52, Leaf 3, t = 16 d): 8.8
- Separated + SA Specific GUS-Activity ([2]; PR1-52, Leaf 4, t = 0 d): 117.97 pMol Mu × min^−1 × mg^−1
- SA-Induction ([2]; PR1-52, Leaf 4, t = 0 d): 25.7
- Separated + SA Specific GUS-Activity ([2]; PR1-52, Leaf 4, t = 16 d): 1561.3 pMol Mu × min^−1 × mg^−1
- SA-Induction ([2]; PR1-52, Leaf 4, t = 16 d): 44.5
- Separated + SA Specific GUS-Activity ([2]; PR1-52, Leaf 5, t = 0 d): 140.37 pMol Mu × min^−1 × mg^−1
- SA-Induction ([2]; PR1-52, Leaf 5, t = 0 d): 29.4
- Separated + SA Specific GUS-Activity ([2]; PR1-52, Leaf 5, t = 16 d): 1220.71 pMol Mu × min^−1 × mg^−1
- SA-Induction ([2]; PR1-52, Leaf 5, t = 16 d): 9.0
- Separated + SA Specific GUS-Activity ([2]; PR1-52, Leaf 6, t = 0 d): 106.35 pMol Mu × min^−1 × mg^−1
- SA-Induction ([2]; PR1-52, Leaf 6, t = 0 d): 319.4
- Separated + SA Specific GUS-Activity ([2]; PR1-52, Leaf 6, t = 16 d): 1003.47 pMol Mu × min^−1 × mg^−1
- SA-Induction ([2]; PR1-52, Leaf 6, t = 16 d): 47.0
- Separated + SA Specific GUS Activity ([3]; PR1-52 (pAG5947-trans), leaf disks): 218.93 pMol Mu × min^−1 × mg^−1
- SA-Induction ([3]; PR1-52 (pAG5947-trans)): 14.5
- Separated + SA Specific GUS Activity ([3]; PR1-54 (pAG5947-trans), leaf disks): 167.83 pMol Mu × min^−1 × mg^−1
- SA-Induction ([3]; PR1-54 (pAG5947-trans)): 8.0
- Separated + SA Specific GUS Activity ([3]; PR1-56 (pAG5947-trans), leaf disks): 661.19 pMol Mu × min^−1 × mg^−1
- SA-Induction ([3]; PR1-56 (pAG5947-trans)): 8.3
- change of reporter gene / promoter activity (in words) ([3]; lines PR1-52, PR1-54 and PR1-56 transformed with pAG5947-trans, leaf disks): significant induction
- Separated + SA Specific GUS Activity ([4]; PR4-19 (pAG516)): 16.6 pMol Mu × min^−1 × mg^−1
- SA-Induction ([4]; PR4-19 (pAG516)): 2.3
- Separated + SA Specific GUS Activity ([4]; PR4-21 (pAG516)): 21.3 pMol Mu × min^−1 × mg^−1
- SA-Induction ([4]; PR4-21 (pAG516)): 0.6
- Separated + SA Specific GUS Activity ([4]; PR4-22 (pAG516)): 19.3 pMol Mu × min^−1 × mg^−1
- SA-Induction ([4]; PR4-22 (pAG516)): 3.6
- SA-inducibility (in words) ([4]; plants transformed with the construct pAG516, leaf disks): small SA-inducibility
- Separated + SA Specific GUS Activity ([5]; PR8-2 (pAG2339)): 1.7 pMol Mu × min^−1 × mg^−1
- Separated + SA Specific GUS Activity ([5]; PR8-3 (pAG2339)): 0 pMol Mu × min^−1 × mg^−1
- Separated + SA Specific GUS Activity ([5]; PR8-12 (pAG2339)): 0 pMol Mu × min^−1 × mg^−1
- Separated + SA Specific GUS Activity ([6]; leaf disks, SA): 6.2 pMol Mu × min^−1 × mg^−1
- SA-Induction ([6]; vs fresh harvested control leaves): 0.8
- transcript amount after 24 hours relative to the 0 h value ([7]; sugar beet leaf disks in salicylic acid containing medium (2.0 mM SA)): ~8.5 fold
- transcript amount formed by the promoter activity ([7]; Time 0 h): 81 PSL (photo stimulated luminescence)-units
- transcript amount formed by the promoter activity ([7]; Time 3 h): 107 PSL (photo stimulated luminescence)-units
- transcript amount formed by the promoter activity ([7]; Time 6 h): 284 PSL (photo stimulated luminescence)-units
- transcript amount formed by the promoter activity ([7]; Time 11 h): 513 PSL (photo stimulated luminescence)-units
- transcript amount formed by the promoter activity ([7]; Time 24 h): 688 PSL (photo stimulated luminescence)-units
